Measured values reported in the NIST ThermoML archive (doi:10.1021/je050414d).
Where “and” joins values, the source holds several entries; their conditions need not be identical. Identical values can stand only once. ± gives the expanded uncertainty stated by the source.

Columns and labels:
[1] = 101 kPa, Liquid; for viscosity: Capillary tube (Ostwald / Ubbelohde) method
[2] = xn = mol fraction of the nth substance listed; details: 101 kPa, Liquid, x2 = 0; for viscosity: Capillary tube (Ostwald / Ubbelohde) method

CCOC(=O)OCC [diethyl carbonate]
[1]
Details | mass density [kg/m3] | viscosity
293.15 K | 975 ± 1 | 0.801 ± 0.008 mPa·s and 0.8 ± 0.008 mPa·s
298.15 K | 968.97 ± 1.1 | 0.746 ± 0.008 mPa·s
303.15 K | 962.39 ± 1.1 | 0.695 ± 0.008 mPa·s
313.15 K | 952.32 ± 1.2 | 0.61 ± 0.007 mPa·s
323.15 K | 939.78 ± 1.3 | 0.541 ± 0.007 mPa·s
333.15 K | 928.69 ± 1.4 | 0.483 ± 0.007 mPa·s
343.15 K | 916.33 ± 1.6 | 0.435 ± 0.007 mPa·s
353.15 K | 905.02 ± 1.7 | 0.393 ± 0.007 mPa·s
363.15 K | 893.71 ± 1.8 | 0.358 ± 0.007 mPa·s

CO [methanol]
[1]
Details | mass density [kg/m3] | viscosity [mPa·s]
293.15 K | 791.54 ± 2.7 | 0.582 ± 0.007
298.15 K | 786.83 ± 2.8 | 0.55 ± 0.007
303.15 K | 782.12 ± 2.8 | 0.512 ± 0.007
313.15 K | 772.6 ± 2.9 | 0.448 ± 0.007
323.15 K | 762.97 ± 3 | 0.395 ± 0.007
333.15 K | 749.69 ± 3.1 | 0.351 ± 0.007

CO [methanol] + CCOC(=O)OCC
[2]
Details | mass density [kg/m3] | viscosity [mPa·s]
293.15 K | 791.54 ± 2.7 | 0.582 ± 0.007
298.15 K | 786.83 ± 2.8 | 0.55 ± 0.007
303.15 K | 782.12 ± 2.8 | 0.512 ± 0.007
313.15 K | 772.6 ± 2.9 | 0.448 ± 0.007
323.15 K | 762.97 ± 3 | 0.395 ± 0.007
333.15 K | 749.69 ± 3.1 | 0.351 ± 0.007

CC(C)O [propan-2-ol]
[1]
Details | mass density [kg/m3] | viscosity [mPa·s]
293.15 K | 785.28 ± 2.8 | 2.382 ± 0.016
298.15 K | 780.69 ± 2.8 | 2.069 ± 0.014
303.15 K | 776.15 ± 2.9 | 1.743 ± 0.013
313.15 K | 766.34 ± 3 | 1.288 ± 0.01
323.15 K | 755.66 ± 3 | 1.002 ± 0.009
333.15 K | 745.51 ± 3.1 | 0.789 ± 0.008
343.15 K | 735.02 ± 3.2 | 0.626 ± 0.007

CC(C)O [propan-2-ol] + CCOC(=O)OCC
[2]
Details | mass density [kg/m3] | viscosity [mPa·s]
293.15 K | 785.28 ± 2.8 | 2.382 ± 0.016
298.15 K | 780.69 ± 2.8 | 2.069 ± 0.014
303.15 K | 776.15 ± 2.9 | 1.743 ± 0.013
313.15 K | 766.34 ± 3 | 1.288 ± 0.01
323.15 K | 755.66 ± 3 | 1.002 ± 0.009
333.15 K | 745.51 ± 3.1 | 0.789 ± 0.008
343.15 K | 735.02 ± 3.2 | 0.626 ± 0.007

Cc1ccccc1 [toluene]
[1]
Details | mass density [kg/m3] | viscosity [mPa·s]
298.15 K | 862.01 ± 2 | 0.554 ± 0.007
303.15 K | 858.32 ± 2.1 | 0.525 ± 0.007
313.15 K | 848.92 ± 2.2 | 0.47 ± 0.007
323.15 K | 838.75 ± 2.3 | 0.423 ± 0.007
333.15 K | 829.93 ± 2.3 | 0.385 ± 0.007
343.15 K | 820.3 ± 2.4 | 0.35 ± 0.007
353.15 K | 810.54 ± 2.5 | 0.31 ± 0.006
363.15 K | 797.68 ± 2.6 | 0.286 ± 0.006

Cc1ccccc1 [toluene] + CCOC(=O)OCC
[2]
Details | mass density [kg/m3] | viscosity [mPa·s]
298.15 K | 862.01 ± 2 | 0.554 ± 0.007
303.15 K | 858.32 ± 2.1 | 0.525 ± 0.007
313.15 K | 848.92 ± 2.2 | 0.47 ± 0.007
323.15 K | 838.75 ± 2.3 | 0.423 ± 0.007
333.15 K | 829.93 ± 2.3 | 0.385 ± 0.007
343.15 K | 820.3 ± 2.4 | 0.35 ± 0.007
353.15 K | 810.54 ± 2.5 | 0.31 ± 0.006
363.15 K | 797.68 ± 2.6 | 0.286 ± 0.006
